Measured values: patent US11207331B2, “Agents, compositions and methods for enhancing neurological function” (University of Southern California, priority 2007, dated 2021)
Entries after “also recorded” stand apart in the source; their conditions may differ.

How the values were obtained:
[1] = tested on: neural stem cells derived from human fetal cortex; assay: BrdU chemiluminescence ELISA in human neural stem cells; type: cell-based; conditions: 250 and 500 nM, 24 hours
Method: Another experiment was performed to assess the neurogenic effects of THP administration on human neural stem cells. In this experiment, neural stem cells derived from human fetal cortex were treated with varying concentrations of THP [1-1000 nM] or with bFGF [20 ng/ml]+heparin [[…]] as a THP positive control. The proliferation marker, BrdU [10 uM] was added simultaneously with test molecules and the cells were incubated at 37° C. for 24 hours.

[2] = tested on: human neural progenitor cells (hNPC); assay: Proliferation and phenotype of human neural progenitor cells (hNPC); type: cell-based
Method: To determine the impact of THP on hNPC cell proliferation, a dose response (pM-nM) experiment was performed. Results of these analyses indicate:
To determine the impact of THP on the stability of hNPC phenotype, hNPCs were double labeled with BrdU, Tuj1 and MAP2, or GFAP.
To determine whether the same mechanisms of THP-induced proliferation in rodent derived NPCs could be generalized to humans, we determined the requirement of the GABAAR by antagonizing the GABAAR with bicuculline followed by assessment of THP-induced hNPC cell proliferation.

[3] = tested on: β-amyloid; assay: β-amyloid expression with antibody 6E10 (Western blot, immunostaining); type: in vivo, mouse; conditions: for decrease of 56 kDa β-amyloid (Aβ*56) band intensity vs vehicle: cortex
Method: In a pilot project to determine the impact of longterm exposure to THP, the impact of THP, 10 mg/kg s.c. thrice weekly for 3 months, on the progression of Alzheimer's disease (AD) pathology in 3-6 month old 3×TgAD mice was investigated. Mouse brain hemisphere sections were immunostained with specific antibody (6E10) against Aβ or HT7, which recognizes tau and PHF-tau between residue 159 and 163 and visualized with FITC conjugated second antibody.
In another experiment, THP (10 mg/kg/week, administered once a week for 6 months) was administered to 9- and 12-month male mice transgenic for Alzheimer's disease (3×Tg-AD). The 9 month old animals were started on THP at 3 months of age prior to the development of beta amyloid, whereas the 12 month old animals were begun at 6 months of age when beta amyloid had already begun to accumulate within neurons. Typically, the development of intraneuronal beta amyloid is seen in 6 and 9 month old animals and the development of plaques in 12 month old animals. Plaques are rarely seen in 9 month old animals.
Brain sections were stained with beta amyloid antibody 6E10.
THP (10 mg/kg) or vehicle was transdermal treated once a week to 3-month-old 3×Tg-AD mice for 6 months. Western blot analysis was conducted using brain protein from hippocampus with beta amyloid antibody 6E10, which recognizes the abnormally processed isoforms, as well as precursor forms of beta amyloid protein.
THP (10 mg/kg) or vehicle was subcutaneously administered once a month, once per week for 6 months, or once every other day for 3 months. Brain sections of treated mice were stained with beta amyloid antibody 6E10 which recognizes the abnormally processed isoforms, as well as precursor forms of beta amyloid protein.
(§1) Further studies were conducted using a dosing regime of once a week for six months administered subcutaneously. Three and six months old 3×Tg-AD and age-matched non-Tg mice were chosen for the experiments, since AD pathology (Aβ) starts development at 3-month and abundant accumulation at 6-months. Allopregnanolone was subcutaneously (s.c.) administrated with 10 mg/kg once per week for 6 months. For neurogenesis and neurosurvival study, BrdU, IdU and CIdU were intraperitoneal (i.p.) injected at the first 5 days, mid 5 days and 5 days before sacrifice during 6-month treatment. After 6 months of allopregnanolone treatment, mice, at 9- and 12-month old, were sacrificed.
Western blot analysis was conducted using brain protein from frontal-parietal-temporal cortex with beta amyloid antibody 6E10, which recognizes the abnormally processed isoforms, as well as precursor forms of beta amyloid protein. The expression of different forms of beta amyloid in 3×Tg-AD mice was characterized.

[4] = tested on: phosphorylated tau; assay: Phospho-tau immunoreactivity; type: in vivo, mouse
[5] = tested on: reactive microglial cells; assay: Microglial reaction (OX42 Western blot, Iba1 staining); type: in vivo, mouse
Method: as §1
Western blot analysis was conducted with rabbit polyclonal anti-CD11b/c (OX42) which recognizes reactive microglial cells.

[6] = tested on: CNPase; assay: CNPase expression (myelination marker); type: in vivo, mouse
Method: as §1
Immunofluorescent staining shown the immunoreactivity increased in CA1, entorhinal cortex, and primary somatosensory cortex.

[7] = 10 mg/kg once a week for six months
[8] = 3×Tg-AD mice, once a week for 6 months

## CC(=O)[C@H]1CC[C@H]2[C@@H]3CC[C@H]4C[C@H](O)CC[C@]4(C)[C@H]3CC[C@]12C [THP, 3α-hydroxy-5α-pregnan-20-one]
[1]
  BrdU chemiluminescence compared with positive control bFGF+heparin: consistently greater than the positive control bFGF+heparin
  BrdU chemiluminescence relative to vehicle control: significantly increased
[2]
  efficacy as neurogenic factor compared with bFGF+heparin: exceeded that of bFGF+heparin
[2]; 250 nM THP
  proliferative efficacy compared with positive control bFGF: as efficacious a proliferative factor as the positive control, bFGF
[2]; dose response
  concentration at which proliferation was first evident: 1 nM
  concentration at which proliferative efficacy diminished: 1000 nM
[2]; dose response, sustained at 250 and 500 nM
  concentration of maximal proliferation: 100 nM
[2]; doses within an achievable therapeutic range
  increase in human neural progenitor cell proliferation: 50%
[2]; double labeling
  number of BrdU positive hNPCs vs vehicle: significantly increased
  proportion of Tuj1, MAP2 or GFAP cells vs vehicle: not changing
[2]; time course
  time at which hNPC proliferation reached maximum: 6 h
  time at which hNPC proliferation was evident: 3 h
[3]; [7]
  immunocytochemical detection of Abeta*56: substantially decreases Abeta*56 in hippocampal neurons
[3]; 10 mg/kg s.c. every other day for 3 months or once a week for 6 months
  6E10 immunoreactivity: significantly decreases 6E10 immunoreactivity
[3]; 10 mg/kg s.c. once a month
  6E10 immunoreactivity: no effect
[3]; [8]
  6E10 / intraneuronal Aβ immunoreactivity in brain sections: lower in THP-treated brain region CA1, Cortex and Amygdala than vehicle treated-brain, but not in the subiculum; also recorded: lower in THP-treated 9-month old 3×Tg-AD mice hippocampus, cortex, and amygdala than in vehicle-treated brain, but not in subiculum
[3]; 3×TgAD mice, 10 mg/kg s.c. thrice weekly for 3 months
  AD pathology markers (Aβ 6E10, tau HT7 immunoreactivity): reduced the level of AD pathology markers in 3×TgAD mouse hippocampal CA1
[3]; 9-month 3×Tg-AD mice, 10 mg/kg s.c. once a week for 6 months
  reduction of Aβ 6-mer 27 kDa band intensity: 35±10%
[3]; 9-month old 3×Tg-AD mice, 10 mg/kg s.c. once a week for 6 months
  decrease of 56 kDa β-amyloid (Aβ*56) band intensity vs vehicle: 25±4%
[3]; 12-month old 3×Tg mice
  Aβ 6-mer 27 kDa band intensity vs vehicle: no difference
[3]; 12-month old 3×Tg-AD mice, 10 mg/kg s.c. once a week for 6 months
  decrease of 56 kDa β-amyloid (Aβ*56) band intensity vs vehicle: 15±4%
[3]; transdermal 10 mg/kg once a week for 6 months, 9-month old 3×Tg-AD mice, hippocampus
  decrease of 28 kDa β-amyloid oligomer band intensity vs vehicle: 39±13%
[4]; [7]
  immunoreactivity of phosphorylated tau: decreases the immunoreactivity of phosphorylated tau
[4]; [8]
  AT8 immunoreactivity, immunoblotting: did not show a significantly reduction of AT8 immunoreactivity
  AT8 immunostaining: lower levels of immunoreactivity in THP-treated hippocampal CA1, cortex and amygdala
[5]; 9-month and 12-month 3×Tg
  anti-CD11b/c (OX42) band intensities: no significant differences
[5]; hippocampal CA1
  anti-Iba1 immunofluorescent staining: lower levels of immunoactivity in THP-treated hippocampal CA1
[6]; 9-month nonTg mice and 3×TgAD mice
  CNPase expression, Western blot: increased CNPase expression
[6]; 12-month 3×TgAD mice
  CNPase expression, Western blot: trended towards an increase
[6]; 12-month non-Tg mice
  CNPase expression, Western blot: no significant difference
